According to patent US9428514B2, “Bromodomain inhibitors” (AbbVie Inc., priority 2013, dated 2016):

system: breast cancer cell line MX-1; assay: MX-1 cell line proliferation assay (3-day, Cell Titer Glo); assay type: cell-based; conditions: Homo sapiens, MX1, MX-1 cells, 72 hours, read-out: Cellular proliferation: EC50
Method: The impact of compounds of the Examples on cancer cell proliferation was determined using the breast cancer cell line MX-1 (ATCC) in a 3-day proliferation assay. MX-1 cells were maintained in RPMI supplemented with 10% FBS at 37° C. and an atmosphere of 5% CO2. For compound testing, MX-1 cells were plated in 96-well black bottom plates at a density of 5000 cells/well in 90 μL of culture media and incubated at 37° overnight to allow cell adhesion and spreading. Compound dilution series were prepared in DMSO via a 3-fold serial dilution from 3 mM to […]. The DMSO dilution series were then diluted 1:100 in phosphate buffered saline, and 10 μL of the resulted solution were added to the appropriate wells of the MX-1 cell plate. The final compound concentrations in the wells were 3, 1, 0.3, 0.1, 0.03, 0.01, 0.003, 0.001, 0.0003, 0.0001, and 0.00003 μM.
Luminescence readings from the Cell Titer Glo assay were normalized to the DMSO treated cells and analyzed using the GraphPad Prism software with sigmoidal curve fitting to obtain EC50s. The minimum significant ratio (MSR) was determined to evaluate assay reproducibility (Eastwood et al., (2006) J Biomol Screen, 11: 253-261). The overall MSR was determined to be 2.1 and a moving MSR (last six run MSR overtime) has been <2. The EC50 values are reported in Table 1 for the indicated compounds.

SMILES | EC50
CCOc1cc(=O)n(C)cc1-c1cc(N(Cc2cnn(C)c2)S(=O)(=O)Cc2ccccc2)ccc1Oc1ccc(F)cc1F [Example 98, N-[4-(2,4-difluorophenoxy)-3-(4-ethoxy-1-methyl-6-oxo-1,6-dihydropyridin-3-yl)phenyl]-N-[(1-methyl-1H-pyrazol-4-yl)methyl]-1-phenylmethanesulfonamide] | > 1000 nM
CCOc1cc(=O)n(C)cc1-c1cc(N(Cc2cn(C)cn2)S(=O)(=O)CC)ccc1Oc1ccc(F)cc1F [Example 100, N-[4-(2,4-difluorophenoxy)-3-(4-ethoxy-1-methyl-6-oxo-1,6-dihydropyridin-3-yl)phenyl]-N-[(1-methyl-1H-imidazol-4-yl)methyl]ethanesulfonamide] | > 1000 nM
CCOc1cc(=O)n(C)cc1-c1cc(N(Cc2cn(C)cn2)S(=O)(=O)Cc2ccccc2)ccc1Oc1ccc(F)cc1F [Example 101, N-[4-(2,4-difluorophenoxy)-3-(4-ethoxy-1-methyl-6-oxo-1,6-dihydropyridin-3-yl)phenyl]-N-[(1-methyl-1H-imidazol-4-yl)methyl]-1-phenylmethanesulfonamide] | > 1000 nM
CCOc1cc(=O)n(C)cc1-c1cc(N(C[C@H]2COCCO2)S(=O)(=O)CC)ccc1Oc1ccc(F)cc1F [Example 102, N-[4-(2,4-difluorophenoxy)-3-(4-ethoxy-1-methyl-6-oxo-1,6-dihydropyridin-3-yl)phenyl]-N-[(2S)-1,4-dioxan-2-ylmethyl]ethanesulfonamide] | 710 nM

Stronger by EC50, values ahead:

EC50 | SMILES
677 nM | CCOc1cc(=O)n(C)cc1-c1cc(N(CC2CCOCC2)S(=O)(=O)CC)ccc1Oc1ccc(F)cc1F [Example 103, N-[4-(2,4-difluorophenoxy)-3-(4-ethoxy-1-methyl-6-oxo-1,6-dihydropyridin-3-yl)phenyl]-N-(tetrahydro-2H-pyran-4-ylmethyl)ethanesulfonamide]
555 nM | CCOc1cc(=O)n(C)cc1-c1cc(N(Cc2nccs2)S(=O)(=O)CC)ccc1Oc1ccc(F)cc1F [Example 99, N-[4-(2,4-difluorophenoxy)-3-(4-ethoxy-1-methyl-6-oxo-1,6-dihydropyridin-3-yl)phenyl]-N-(1,3-thiazol-2-ylmethyl)ethanesulfonamide]
550 nM | CCOc1cc(=O)n(C)cc1-c1cc(N(Cc2cnn(C)c2)S(=O)(=O)CC)ccc1Oc1ccc(F)cc1F [Example 97, N-[4-(2,4-difluorophenoxy)-3-(4-ethoxy-1-methyl-6-oxo-1,6-dihydropyridin-3-yl)phenyl]-N-[(1-methyl-1H-pyrazol-4-yl)methyl]ethanesulfonamide]
